# Assay results: patent US9205064B2, “Methods for the diagnosis of oncological disorders using epimetabolic shifters, multidimensional intracellular molecules, or environmental influencers” (Berg LLC, priority 2009, dated 2015)
# Tests used:
# SCC cells = assay: Real-time PCR Diabetes Array; assay type: cell-based; settings: 100 μM Q10, at 6 hours
# Description: The control cells were untreated cells.
# RNA was quantified by measuring Optical Density at 260 nm.
# [1] = test system: Isocitrate Dehydrogenase-1 (IDH-1); assay: Western blot of IDH1 levels in normal and cancer cells; assay type: cell-based, human; settings: PACA2, 5g48-100
# Method: The whole cell pellets were resuspended one at a time in 1 mL of C7 buffer and transferred to labeled 15 mL tubes. The samples were then sonicated in the cold room on ice using 6 sonic pulses with the setting at #14. The samples were spun for a short time to 2500 g after sonication and the samples transferred to 2 ml tubes. The pH was verified of each sample (pH should be 9.0) using the foam remaining in the […] sample tubes.
# Alkylation and reduction of samples was performed for each sample by adding 10 ul of 1M acrylamide, 25 ul of tributylphoshene and incubation for 90 mins with intermittent mixing. After incubation, 10 ul of 1M DTT was added and the tubes were spun at 20,000 g at 20 deg C. for 10 minutes and transferred the supernatant to labeled Amicon Ultra centrifugal filter units with a 10 k cut off (Millipore catalog #UFC 801024). The samples were spun for 15 minutes at 2500 g in 2 intervals. The conductivity was measured for Chaps alone as well as the samples using a conductivity meter. If the conductivity of samples is high, then 1 ml of chaps was added for buffer exchange and spun again at 2500 g until the volume was down to 250 ul. […]
# The samples were processed as per standard protocols as described above and the amount of protein in each of the samples was determined by Bradford assay. […]
smiles,measurement,setting,value
"COC1=C(OC)C(=O)C(C/C=C(\C)CC/C=C(\C)CC/C=C(\C)CC/C=C(\C)CC/C=C(\C)CC/C=C(\C)CC/C=C(\C)CC/C=C(\C)CC/C=C(\C)CCC=C(C)C)=C(C)C1=O [Q10, Coenzyme Q10]",INPPL1 Regulation,SCC cells,Down regulated at
same,IDH1 Normalized Intensity (HASMC vs. PACA2),[1],860
